Results: the NIST ThermoML archive (doi:10.1016/j.jct.2017.11.005)
Numbers after ± are expanded uncertainties.

Conditions: Gas, Capillary tube (Ostwald / Ubbelohde) method

For `O=C=O` [carbon dioxide], the viscosity (308.2 K, 1200 kPa) was 0.0153 ± 0.0005 mPa·s, the viscosity (308.2 K, 2070 kPa) was 0.0154 ± 0.0005 mPa·s and the viscosity (308.2 K, 11330 kPa) was 0.0638 ± 0.0012 mPa·s. For the same molecule, the viscosity (308.2 K, 22090 kPa) was 0.0882 ± 0.0017 mPa·s, the viscosity (308.2 K, 34970 kPa) was 0.1068 ± 0.0021 mPa·s and the viscosity (308.2 K, 68930 kPa) was 0.1441 ± 0.0028 mPa·s. It also gave a viscosity (308.2 K, 101200 kPa) of 0.1733 ± 0.0036 mPa·s, a viscosity (308.2 K, 150520 kPa) of 0.222 ± 0.0047 mPa·s and a viscosity (323.2 K, 1270 kPa) of 0.0161 ± 0.0005 mPa·s. For the same molecule, the viscosity (323.2 K, 2050 kPa) was 0.0163 ± 0.0005 mPa·s, the viscosity (323.2 K, 5040 kPa) was 0.0174 ± 0.0005 mPa·s and the viscosity (323.2 K, 11440 kPa) was 0.0398 ± 0.001 mPa·s. The viscosity (323.2 K, 20670 kPa) was 0.0711 ± 0.0015 mPa·s, the viscosity (323.2 K, 50820 kPa) was 0.112 ± 0.0024 mPa·s and the viscosity (323.2 K, 105530 kPa) was 0.1606 ± 0.0035 mPa·s. For the same molecule, the viscosity (323.2 K, 150430 kPa) was 0.1953 ± 0.0043 mPa·s.
